Results reported in PubChem BioAssay (NCI).
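48-hour exposure; five concentrations; linearly interpolated endpoints. GI50 marks 50% less growth. The concentration for full growth arrest is given as TGI.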

Tests used:
Experiment in all cases: NCI tumour cell line growth inhibition, 48 h
M14 melanoma = system: M14 melanoma
HCT-15 colon = system: HCT-15 colon
RXF 393 renal = system: RXF 393 renal
K-562 leukemia = system: K-562 leukemia
NCI-H23 lung = system: NCI-H23 lung
ACHN renal = system: ACHN renal
SK-MEL-2 melanoma = system: SK-MEL-2 melanoma
NCI-H460 lung = system: NCI-H460 lung
COLO 205 colon = system: COLO 205 colon
HCC-2998 colon = system: HCC-2998 colon
SK-OV-3 ovarian = system: SK-OV-3 ovarian
NCI-H522 lung = system: NCI-H522 lung
A498 renal = system: A498 renal
HS 578T breast = system: HS 578T breast
SW-620 colon = system: SW-620 colon
CAKI-1 renal = system: CAKI-1 renal
PC-3 prostate = system: PC-3 prostate
T-47D breast = system: T-47D breast
SNB-75 CNS = system: SNB-75 CNS
OVCAR-5 ovarian = system: OVCAR-5 ovarian
SK-MEL-28 melanoma = system: SK-MEL-28 melanoma
SNB-19 CNS = system: SNB-19 CNS
MDA-MB-435 = system: MDA-MB-435
SR leukemia = system: SR leukemia
OVCAR-8 ovarian = system: OVCAR-8 ovarian
DU-145 prostate = system: DU-145 prostate
IGROV1 ovarian = system: IGROV1 ovarian
U251 CNS = system: U251 CNS
MCF7 breast = system: MCF7 breast
NCI-H226 lung = system: NCI-H226 lung
KM12 colon = system: KM12 colon
HCT-116 colon = system: HCT-116 colon
SK-MEL-5 melanoma = system: SK-MEL-5 melanoma
MALME-3M melanoma = system: MALME-3M melanoma
OVCAR-4 ovarian = system: OVCAR-4 ovarian
MDA-MB-231 breast = system: MDA-MB-231 breast
HOP-92 NSCLC = system: HOP-92 NSCLC
A549 NSCLC = system: A549 NSCLC
RPMI-8226 leukemia = system: RPMI-8226 leukemia
HL-60(TB) leukemia = system: HL-60(TB) leukemia
UACC-257 melanoma = system: UACC-257 melanoma
786-0 renal = system: 786-0 renal
HOP-62 NSCLC = system: HOP-62 NSCLC
SF-295 CNS = system: SF-295 CNS
MOLT-4 leukemia = system: MOLT-4 leukemia
UO-31 renal = system: UO-31 renal
SF-268 CNS = system: SF-268 CNS
CCRF-CEM leukemia = system: CCRF-CEM leukemia
OVCAR-3 ovarian = system: OVCAR-3 ovarian
NCI/ADR-RES ovarian = system: NCI/ADR-RES ovarian
UACC-62 melanoma = system: UACC-62 melanoma
LOX IMVI melanoma = system: LOX IMVI melanoma
BT-549 breast = system: BT-549 breast
SN12C renal = system: SN12C renal
TK-10 renal = system: TK-10 renal
SF-539 CNS = system: SF-539 CNS
HT29 colon = system: HT29 colon
EKVX NSCLC = system: EKVX NSCLC

CN(Cc1cnc2nc(N)nc(N)c2n1)c1ccc(C(=O)NC(CCC(=O)O)C(=O)O)cc1Br (stereo not given)
GI50 (M14 melanoma): < 10 nM | TGI (M14 melanoma): 5950 nM | GI50 (HCT-15 colon): < 10 nM | TGI (HCT-15 colon): > 100000 nM | GI50 (RXF 393 renal): 459 nM | TGI (RXF 393 renal): 5010 nM | GI50 (K-562 leukemia): < 10 nM | TGI (K-562 leukemia): > 100000 nM | GI50 (NCI-H23 lung): < 10 nM | TGI (NCI-H23 lung): 2120 nM | GI50 (ACHN renal): < 10 nM | TGI (ACHN renal): > 100000 nM | GI50 (SK-MEL-2 melanoma): < 10 nM | TGI (SK-MEL-2 melanoma): > 100000 nM | GI50 (NCI-H460 lung): < 10 nM | TGI (NCI-H460 lung): 4900 nM | GI50 (COLO 205 colon): < 21.5 nM | TGI (COLO 205 colon): 17400 nM | GI50 (HCC-2998 colon): < 10 nM | GI50 (SK-OV-3 ovarian): 47 nM | TGI (SK-OV-3 ovarian): > 100000 nM | GI50 (NCI-H522 lung): < 10 nM | TGI (NCI-H522 lung): 31200 nM | GI50 (A498 renal): < 10 nM | TGI (A498 renal): 4710 nM | GI50 (HS 578T breast): 1100 nM | TGI (HS 578T breast): 6390 nM | GI50 (SW-620 colon): < 10 nM | TGI (SW-620 colon): > 83900 nM | GI50 (CAKI-1 renal): < 10 nM | GI50 (PC-3 prostate): < 10 nM | TGI (PC-3 prostate): > 100000 nM | GI50 (T-47D breast): 113 nM | TGI (T-47D breast): > 100000 nM | TGI (SNB-75 CNS): 5060 nM | GI50 (OVCAR-5 ovarian): < 31 nM | TGI (OVCAR-5 ovarian): > 100000 nM | GI50 (SK-MEL-28 melanoma): 230 nM | TGI (SK-MEL-28 melanoma): 19500 nM | GI50 (SNB-19 CNS): < 10 nM | TGI (SNB-19 CNS): > 100000 nM | GI50 (MDA-MB-435): < 10 nM | TGI (MDA-MB-435): 5150 nM | GI50 (SR leukemia): < 10 nM | TGI (SR leukemia): 8490 nM | GI50 (OVCAR-8 ovarian): < 10 nM | TGI (OVCAR-8 ovarian): > 100000 nM | GI50 (DU-145 prostate): < 10 nM | TGI (DU-145 prostate): > 100000 nM | GI50 (IGROV1 ovarian): < 10 nM | TGI (IGROV1 ovarian): 1010 nM | GI50 (U251 CNS): < 13.4 nM | TGI (U251 CNS): > 100000 nM | GI50 (MCF7 breast): < 10 nM | TGI (MCF7 breast): > 100000 nM | GI50 (NCI-H226 lung): < 10 nM | TGI (NCI-H226 lung): > 96400 nM | GI50 (KM12 colon): < 10 nM | TGI (KM12 colon): 11600 nM | GI50 (HCT-116 colon): < 10 nM | TGI (HCT-116 colon): 2420 nM | GI50 (SK-MEL-5 melanoma): < 10 nM | TGI (SK-MEL-5 melanoma): 4510 nM | GI50 (MALME-3M melanoma): < 10 nM | TGI (MALME-3M melanoma): 3920 nM | GI50 (OVCAR-4 ovarian): 13700 nM | TGI (OVCAR-4 ovarian): > 100000 nM | GI50 (MDA-MB-231 breast): 6020 nM | TGI (MDA-MB-231 breast): > 100000 nM | GI50 (HOP-92 NSCLC): 1470 nM | TGI (HOP-92 NSCLC): 23100 nM | GI50 (A549 NSCLC): < 10 nM | TGI (A549 NSCLC): > 100000 nM | GI50 (RPMI-8226 leukemia): < 10 nM | TGI (RPMI-8226 leukemia): > 100000 nM | GI50 (HL-60(TB) leukemia): < 10 nM | TGI (HL-60(TB) leukemia): > 100000 nM | GI50 (UACC-257 melanoma): 168 nM | TGI (UACC-257 melanoma): 16500 nM | GI50 (786-0 renal): < 10 nM | GI50 (HOP-62 NSCLC): < 10 nM | GI50 (SF-295 CNS): < 10 nM | TGI (SF-295 CNS): 201 nM | GI50 (MOLT-4 leukemia): < 10 nM | TGI (MOLT-4 leukemia): > 46300 nM | GI50 (UO-31 renal): < 10 nM | GI50 (SF-268 CNS): < 10 nM | TGI (SF-268 CNS): 13100 nM | GI50 (CCRF-CEM leukemia): < 10 nM | TGI (CCRF-CEM leukemia): > 44500 nM | GI50 (OVCAR-3 ovarian): < 10 nM | TGI (OVCAR-3 ovarian): 4430 nM | GI50 (NCI/ADR-RES ovarian): < 10 nM | TGI (NCI/ADR-RES ovarian): > 100000 nM | GI50 (UACC-62 melanoma): < 10 nM | TGI (UACC-62 melanoma): 7350 nM | GI50 (LOX IMVI melanoma): < 10 nM | TGI (LOX IMVI melanoma): 2100 nM | GI50 (BT-549 breast): < 10 nM | TGI (BT-549 breast): 2500 nM | GI50 (SN12C renal): < 10 nM | TGI (SN12C renal): > 100000 nM | GI50 (TK-10 renal): < 10 nM | TGI (TK-10 renal): > 100000 nM | GI50 (SF-539 CNS): < 10 nM | TGI (SF-539 CNS): 8440 nM | GI50 (HT29 colon): < 10 nM | TGI (HT29 colon): > 100000 nM | GI50 (EKVX NSCLC): < 10 nM | TGI (EKVX NSCLC): 48300 nM
